pKd: −log10 of the molar value. “Also recorded” adds a separate entry of the source.
Legend:
recombinant LafrOBP1 = recombinant LafrOBP1 (Loxodonta africana, UniProt G3UMG1); assay: Competitive binding by displacement of 1-NPN; set-up: species or system African elephant (Loxodonta africana); details: protein and 1-NPN 2 μM each, ligand 2–16 μM
Experimental: (§1) Recombinant LafrOBP1 and EmaxOBP1 were then tested in ligand-binding assays using the Asian elephant pheromones (Z)-7-dodecenyl acetate and frontalin, and the insect pheromone components found in elephants, exo-brevicomin and (E)-β-farnesene, as well as structurally related compounds, and chemicals of different size and structure, which could contribute to estimate the specificity of these proteins. Both LafrOBP1 and EmaxOBP1 bound the fluorescent probe 1-NPN with good affinity (Fig. 5A), thus enabling the use of the fluorescent displacement assay to evaluate the affinities of other ligands. Some representative curves of competitive binding experiments for LafrOBP1 are shown in Fig. 5B-C, while in the histogram of Fig. 5D the binding spectra of LafrOBP1 and EmaxOBP1 are compared. The specificity of LafrOBP1 can be better appreciated from the graph of Fig. 6, where the affinities of esters to the protein are plotted as a function of the ligand's size.
(§2) Affinities of the fluorescent probe N-phenyl-1-naphthylamine (1-NPN) to EmaxOBP1 and LafrOBP1 (both expressed in yeast) were evaluated by titrating a 2 μM solution of each protein in 50 mM Tris-HCl, pH 7.4 with 1 mM 1-NPN in methanol to final concentrations of 2–16 μM. Dissociation constants of other ligands were measured by displacement of the fluorescent reporter 1-NPN from the complex. Accordingly, solutions of protein and 1-NPN, both at the concentration of 2 μM in 50 mM Tris-HCl, pH 7.4, were titrated with 1 mM methanol solutions of each ligand to final concentrations of 2–16 μM. Emission spectra were recorded on a PerkinElmer FL 6500 spectrofluorimeter in a right-angle configuration, at room temperature, with slits of 5 nm for both excitation and emission, using 1 cm path quartz cuvettes. The excitation wavelength was set at 337 nm and intensities were recorded in correspondence with the peak maximum, around 390 nm. Data for 1-NPN were processed with Prism software.
(§3) Dissociation constants of other ligands were calculated from the corresponding [IC]50 values (the. concentration of each ligand halving the initial value of fluorescence), using the equation: Kd = [IC]50/1 + [1-NPN]/KNPN, where [1-NPN] is the concentration of free 1-NPN and KNPN the. dissociation constant of the complex OBP/1-NPN.

recombinant EmaxOBP1 [1] = molecular target: T1, recombinant EmaxOBP1 (Elephas maximus, UniProt Q8HZN2); assay: Competitive binding by displacement of 1-NPN; set-up: species or system Asian elephant (Elephas maximus); details: protein and 1-NPN 2 μM each, ligand 2–16 μM
Experimental: as §1, §2, §3

[2] = molecular target: natural LafrOBP1 (trunk wash fractions 26–29, also containing its isoform and LafrVEG) (Loxodonta africana, UniProt G3UMG1); assay: Competitive fluorescent (1-NPN) ligand-binding assay on crude anion-exchange fractions 26–29 of trunk wash; set-up: species or system African elephant (Loxodonta africana); details: crude trunk wash fractions 26–29 / natural LafrOBP1
Experimental: Given the predominant presence of LafrOBP1 in the trunk wash of the African elephant, we attempted purification of this protein from a crude sample of this secretion by anion-exchange chromatography. Relevant fractions (#26–29) were analysed by SDS-PAGE, (Fig. 2A) and nanoLC-ESI-Q-Orbitrap-MS/MS to identify the proteins present and detect possible PTMs. The same fractions were also tested in ligand-binding assays with some of the two elephants' pheromones and other potential semiochemicals to detect any binding activity (Fig. 2B-C).
Figure 2 (A) Fractionation of a crude extract of trunk wash from the African elephant by anion-exchange chromatography. SDS-PAGE analysis of the fractions showing electrophoretic bands in the low molecular weight range (15–25 kDa). (B) Summary of the affinities to (Z)-7-dodecenyl acetate, (E)-β-farnesene and frontalin measured with crude samples of the same fractions. All of them bound with good affinity both (Z)-7-dodecenyl acetate and (E)-β-farnesene. […] Dissociation constants were evaluated using the procedure adopted when dealing with solutions of a pure protein; as this is not the case, the values have to be taken as a crude indication of the affinity of the ligands for the protein. (C) Examples of the competition curves measured with the three ligands on fraction 27. […]
as §2, with “Accordingly, solutions of protein and 1-NPN, both at the concentration of 2 μM in 50 mM Tris-HCl, pH 7.4, were titrated with 1 mM methanol solutions of each ligand to final concentrations of 2–16 μM.” left out, “Data for 1-NPN were processed with Prism software.” left out

[3] = system: OBP in the trunk wash of the Asian elephant; set-up: method as in PMID 12269821; details: tritium-labelled ligand; radioactivity associated with OBP band; no dissociation constant; cited from earlier work
[4] = system: second major band (apparent mass around 25 kDa) from expression of LafrOBP1 in P. pastoris; assay: Binding of 1-NPN to the second band (around 25 kDa) from LafrOBP1 expression; set-up: species or system African elephant (Loxodonta africana); details: purified second band
Source text: Based on above-reported proteomic analysis and on the available sequences in the protein databases, we decided to focus our functional study on the OBP1 of both species. Thus, LafrOBP1 and EmaxOBP1 were expressed in the yeast Pichia pastoris using the protocol reported in the Materials and Methods section. We chose to perform functional studies on recombinant proteins because attempts to purify natural LafrOBP1 from its contaminants were unsuccessful (data not shown). The recombinant proteins were secreted in the culture medium, concentrated by ultrafiltration and purified by anion-exchange chromatography, followed by a step of hydrophobic interaction chromatography on Phenyl Sepharose. Figure S3 reports the SDS-PAGE analysis relative to the expression and purification of the two proteins. The expression of EmaxOBP1 produced a single major band migrating with an apparent molecular weight (around 20 kDa), compatible with the calculated mass for this protein (18,506.7 Da). Instead, the expression of the African elephant orthologue afforded two major bands, the first migrating at the same level as EmaxOBP1, the second with an apparent mass around 25 kDa.

recombinant EmaxOBP1 [5] = molecular target: T1, recombinant EmaxOBP1; assay: Titration of recombinant protein with fluorescent probe 1-NPN; format: binding, Asian elephant (Elephas maximus); details: 2 μM protein in 50 mM Tris-HCl pH 7.4, room temperature
Experimental: as §2

Chain of recombinant LafrOBP1 (G3UMG1 entry or part of it): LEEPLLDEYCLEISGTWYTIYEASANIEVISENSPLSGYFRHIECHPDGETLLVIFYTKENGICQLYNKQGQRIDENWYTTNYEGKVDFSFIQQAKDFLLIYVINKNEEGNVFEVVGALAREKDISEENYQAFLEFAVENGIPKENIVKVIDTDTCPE
Chain of natural LafrOBP1 (trunk wash fractions 26–29, also containing its isoform and LafrVEG) (G3UMG1 entry or part of it): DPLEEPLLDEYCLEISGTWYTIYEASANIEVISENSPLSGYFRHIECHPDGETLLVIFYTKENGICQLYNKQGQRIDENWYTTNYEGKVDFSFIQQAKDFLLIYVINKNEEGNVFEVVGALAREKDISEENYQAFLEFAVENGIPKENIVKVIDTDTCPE
T1 sequence (Q8HZN2 entry or part of it): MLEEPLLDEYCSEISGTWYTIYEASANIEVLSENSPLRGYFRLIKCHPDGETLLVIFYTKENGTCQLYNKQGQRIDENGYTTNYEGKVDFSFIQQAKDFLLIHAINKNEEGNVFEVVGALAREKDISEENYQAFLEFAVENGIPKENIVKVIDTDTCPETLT

CCCC/C=C\CCCCCCOC(C)=O [(Z)-7-dodecenyl acetate]
binding to recombinant LafrOBP1 (in words) (recombinant LafrOBP1): strongest ligand

CCCCCCCCCC1CCC(=O)O1 (stereo not drawn) [γ-tridecalactone]
binding to recombinant LafrOBP1 (in words) (recombinant LafrOBP1): did not show significant binding | binding to recombinant EmaxOBP1 (in words) (recombinant EmaxOBP1 [1]): did not show significant binding

CC12CCCC(C)(OC1)O2 (stereo not drawn) [frontalin, 1,5-dimethyl-6,8-dioxabicyclo[3.2.1]octane]
binding to recombinant LafrOBP1 (in words) (recombinant LafrOBP1): no affinity; also recorded: did not exhibit any affinity | binding to recombinant EmaxOBP1 (in words) (recombinant EmaxOBP1 [1]): no affinity | binding to trunk wash fractions (in words) [2]: none of them appreciably bound; also recorded: no affinity

CCCC/C=C/CCCCCCOC(C)=O [(E)-7-dodecenyl acetate]
binding to trunk wash OBP (in words) [3]: shown to bind

C=CC(=C)CC/C=C(\C)CCC=C(C)C [(E)-β-farnesene, (6E)-7,11-dimethyl-3-methylene-1,6,10-dodecatriene]
binding to recombinant LafrOBP1 (in words) (recombinant LafrOBP1): good ligand

CC1(C)C2CCC1(C)C(O)C2 (stereo not drawn) [borneol]
binding to recombinant LafrOBP1 (in words) (recombinant LafrOBP1): did not show significant binding | binding to recombinant EmaxOBP1 (in words) (recombinant EmaxOBP1 [1]): did not show significant binding

CCCCCCCCCCCCCC(=O)OCC [ethyl myristate]
binding to recombinant LafrOBP1 (in words) (recombinant LafrOBP1): did not show significant binding | binding to recombinant EmaxOBP1 (in words) (recombinant EmaxOBP1 [1]): did not show significant binding

CCCC/C=C\CCCCCCCCCC=O [(Z)-11-hexadecenal]
binding to recombinant LafrOBP1 (in words) (recombinant LafrOBP1): did not show significant binding; also recorded: did not exhibit significant affinity | binding to recombinant EmaxOBP1 (in words) (recombinant EmaxOBP1 [1]): did not show significant binding; also recorded: did not exhibit significant affinity

CC12CCC(CC1)C(C)(C)O2 [eucalyptol]
binding to recombinant LafrOBP1 (in words) (recombinant LafrOBP1): did not show significant binding | binding to recombinant LafrOBP1 (in words) (recombinant LafrOBP1; listed as eucaliptol): did not exhibit significant affinity | binding to recombinant EmaxOBP1 (in words) (recombinant EmaxOBP1 [1]): did not show significant binding | binding to recombinant EmaxOBP1 (in words) (recombinant EmaxOBP1 [1]; listed as eucaliptol): did not exhibit significant affinity

CCCC/C=C\CCCCCCCCCCOC(C)=O [(Z)-11-hexadecenyl acetate]
binding to recombinant LafrOBP1 (in words) (recombinant LafrOBP1): did not show significant binding | binding to recombinant EmaxOBP1 (in words) (recombinant EmaxOBP1 [1]): did not show significant binding

CCCCCCCC=O [octanal]
binding to recombinant LafrOBP1 (in words) (recombinant LafrOBP1): did not show significant binding; also recorded: did not exhibit significant affinity | binding to recombinant EmaxOBP1 (in words) (recombinant EmaxOBP1 [1]): did not show significant binding; also recorded: did not exhibit significant affinity

Cc1ccc(O)cc1 [p-cresol]
binding to recombinant LafrOBP1 (in words) (recombinant LafrOBP1): did not exhibit significant affinity | binding to recombinant EmaxOBP1 (in words) (recombinant EmaxOBP1 [1]): did not exhibit significant affinity

CC[C@H]1O[C@]2(C)CCC[C@H]1O2 [exo-brevicomin, (1R,5S,7R)-7-ethyl-5-methyl-6,8-dioxabicyclo[3.2.1]octane]
binding to trunk wash fractions (in words) [2]: did not exhibit any affinity

CC(C)=CCC/C(C)=C/CC/C(C)=C/CO [farnesol]
binding to trunk wash fractions (in words) [2]: as good a ligand as (E)- β-farnesene

CCCCCCCCCCCC=O [dodecanal]
binding to recombinant LafrOBP1 (in words) (recombinant LafrOBP1): did not show significant binding | binding to recombinant EmaxOBP1 (in words) (recombinant EmaxOBP1 [1]): did not show significant binding

CCCCCC/C=C\CCCCCCCC=O [(Z)-9-hexadecenal]
binding to recombinant LafrOBP1 (in words) (recombinant LafrOBP1): did not show significant binding | binding to recombinant EmaxOBP1 (in words) (recombinant EmaxOBP1 [1]): did not show significant binding

c1ccc(Nc2cccc3ccccc23)cc1 [1-NPN, N-phenyl-1-naphthylamine]
affinity to the 25 kDa band (in words) [4]: did not show any affinity | pKd (recombinant EmaxOBP1 [5]): 6.34

CCCCCC=O [hexanal]
binding to recombinant LafrOBP1 (in words) (recombinant LafrOBP1): did not exhibit significant affinity | binding to recombinant EmaxOBP1 (in words) (recombinant EmaxOBP1 [1]): did not exhibit significant affinity

C=CCc1ccc(O)c(OC)c1 [eugenol]
binding to recombinant LafrOBP1 (in words) (recombinant LafrOBP1): did not show significant binding; also recorded: did not exhibit significant affinity | binding to recombinant EmaxOBP1 (in words) (recombinant EmaxOBP1 [1]): did not show significant binding; also recorded: did not exhibit significant affinity

CC/C=C\CCOC(C)=O [(Z)-3-hexenyl acetate]
binding to recombinant LafrOBP1 (in words) (recombinant LafrOBP1): did not show significant binding | binding to recombinant EmaxOBP1 (in words) (recombinant EmaxOBP1 [1]): did not show significant binding

CCCC/C=C\CCCCCCCCCCCC=O [(Z)-13-octadecenal]
binding to recombinant LafrOBP1 (in words) (recombinant LafrOBP1): did not show significant binding; also recorded: did not exhibit significant affinity | binding to recombinant EmaxOBP1 (in words) (recombinant EmaxOBP1 [1]): did not show significant binding; also recorded: did not exhibit significant affinity

CCCCCCCCCC=O [decanal]
binding to recombinant LafrOBP1 (in words) (recombinant LafrOBP1): did not show significant binding; also recorded: did not exhibit significant affinity | binding to recombinant EmaxOBP1 (in words) (recombinant EmaxOBP1 [1]): did not show significant binding; also recorded: did not exhibit significant affinity

Source: publication PMC9678865, “An odorant-binding protein in the elephant's trunk is finely tuned to sex pheromone (Z)-7-dodecenyl acetate” (Scientific Reports, 2022)
